Source: patent US20220380331A1, “TREATMENT OF CONDITIONS OF THE NERVOUS SYSTEM” (priority 2019, published 2022)

Legend:
[1] = Solubility in aqueous solution; format: physicochemical
Text: The inventors hypothesised that since the hydroxyl functional groups required for activity were not altered when designing the PNNi analogues, they should retain the capacity to potently reduce PNNs.

PNN-HEK293 cells = test: Immunocytochemistry of PNN formation (WFA) with PNNi analogues; format: cell-based, human; settings: 0.5 mM and 1 mM, 3 days in vitro
Protocol: To compare the efficacy of PNNi, JD009, and JD013 in reducing PNN formation, immunocytochemistry was conducted using the N-acetylgalactosamine-binding lectin WFA to label PNNs. PNN-HEK293 cells were exposed to 0.5 mM and 1 mM of the compounds for 3 days in vitro. […] Quantification of WFA fluorescence intensity per cell was derived in matched regions of interest (ROI) and normalising overall WFA fluorescence intensity to cell number.

| solubility relative to PNNi [1] | SMILES | PNN morphology and expression (WFA fluorescence intensity per cell) (PNN-HEK293 cells) |
| --- | --- | --- |
| increased solubility | CN(C)Cc1cc(=O)oc2cc(O)ccc12 [JD009] | altered PNN expression |
| increased solubility | O=c1cc(CN2CCOCC2)c2ccc(O)cc2o1 [JD013, 7-hydroxy-4-[(morpholin-4-yl)methyl]-2H-1-benzopyran-2-one] | altered PNN expression |
